# Experimental data as given in patent publication US8772299B2, “Phenyl piperazine compounds, pharmaceutical composition including the same and use thereof” (SK Biopharmaceuticals Co., Ltd., priority 2008, dated 2014).
# Structures can show the parent of a compound that is named as a salt.
# Biological target: T1, Serotonin 1A (5-HT1A) receptor (Rattus norvegicus, UniProt P19327)
# T1 construct: The cortex tissue were homogenized in 30 volumes of ice-cold 50 mM Tris-HCl buffer; from tissue; host or cells: Sprague-Dawley rat brain cortex membranes
# T1 sequence (P19327 1-422): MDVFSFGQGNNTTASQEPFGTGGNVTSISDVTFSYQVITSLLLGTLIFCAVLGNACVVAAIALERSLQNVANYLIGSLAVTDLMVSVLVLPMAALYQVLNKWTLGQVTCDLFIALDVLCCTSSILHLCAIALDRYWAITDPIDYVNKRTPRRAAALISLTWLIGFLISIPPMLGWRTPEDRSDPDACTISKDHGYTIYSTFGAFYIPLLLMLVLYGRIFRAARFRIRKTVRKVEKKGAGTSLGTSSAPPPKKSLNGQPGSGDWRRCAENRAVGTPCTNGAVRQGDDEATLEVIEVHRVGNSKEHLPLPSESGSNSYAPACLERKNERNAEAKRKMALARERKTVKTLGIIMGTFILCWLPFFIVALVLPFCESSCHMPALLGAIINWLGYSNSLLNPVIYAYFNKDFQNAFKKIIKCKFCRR
# Assay: Serotonin 1A (5-HT1A) receptor inhibition assay, [3H]8-OH-DPAT binding to rat cortex membranes
# Design: species or system Sprague-Dawley (SD) rats
# Details: 10 nM test compound; 0.92 nM [3H]8-OH-DPAT; rat cortex homogenate; 60 min at 25° C.
# Experimental: The method to test the ability of compounds to inhibit serotonin 1A(5-HT1A) receptors was using Hall. et al., J Neuro Chem., 1985, 44, p 1685-1696 with modification.
# The Sprague-Dawley (SD) rats were killed by decapitation and their brains rapidly removed at 4° C. The cortex tissue were homogenized in 30 volumes of ice-cold 50 mM Tris-HCl buffer (pH7.4) using an ultra-turrax T8 and centrifuged at 48,000 g for 20 min. The supernatant was discarded and the pellet washed twice by resuspension in 20 volumes Tris-HCl and centrifugation, homogenized in 20 volumes Tris-HCl, and incubated at 37° C. for 10 min. Membranes were than collected by centrifugation and washed twice before final resuspension in 10 volumes of 50 mM Tris-HCl, pH7.4.
# For binding assays, the incubation medium consisted of 162.5 ug of tissue homogenate, 0.92 nM of [3H]8-OH-DPAT and vehicle or 10 uM of 5-HT or 10 nM of test compounds per well. 5-HT and test compounds were dissolved in distilled water and incubation medium was 50 mM Tris(pH7.4 at room temperature). The assay plates (96 well) were incubated for 60 min at 25° C. The reaction was terminated by rapid filtration using a Tomtec harvester, through GF/C glassfibre filter with 5 times washes of Tris buffer. The radioactivity retained on the filters was counted by scintillation spectroscopy (MicroBeta TriLux, Wallac). The tests were triplicates. Percent inhibition was calculated as below equation.
# Total binding is the value of vehicle treated group and specific binding is the values that deduct non-specific binding (i.e. the value of non-specific ligand, 5-HT).
row,inhibition at 0.01 µM [%],SMILES
1,77.8,"COc1ccccc1N1CCN(CCCCOc2ccc(Cn3cnnn3)cc2)CC1 [Example 3, 1-(2-methoxy-phenyl)-4-[4-(4-tetrazol-1-ylmethyl-phenoxy)-butyl]-piperazine]"
2,75.9,"COc1ccccc1N1CCN(CCCCOc2ccc(Cn3ncnn3)cc2)CC1 [Example 4, 1-(2-methoxy-phenyl)-4-[4-(4-tetrazol-2-ylmethyl-phenoxy)-butyl]-piperazine]"
3,50.1,"COc1ccccc1N1CCN(CCCCOc2cccc(Cn3cncn3)c2)CC1 [Example 6, 1-(2-methoxy-phenyl)-4-[4-(3-[1,2,4]triazol-1-ylmethyl-phenoxy)-butyl]-piperazine hydrochloride]"
4,71.8,"COc1ccccc1N1CCN(CCCCOc2ccc(Cn3ccnc3C)cc2)CC1 [Example 10, 1-(2-Methoxy-phenyl)-4-{4-[4-(2-methyl-imidazol-1-ylmethyl)-phenoxy]-butyl}-piperazine]"
5,23.5,"COc1ccccc1N1CCN(CCCCOc2ccc(Cn3nnc(-c4ccccc4)n3)cc2)CC1 [Example 15, 1-(2-methoxy-phenyl)-4-{4-[4-(5-phenyl-tetrazol-2-ylmethyl)-phenoxy]-butyl}-piperazine]"
6,62.5,"COc1ccccc1N1CCN(CCCCOc2ccc(Cn3nnnc3-c3ccccc3)cc2)CC1 [Example 16, 1-(2-methoxy-phenyl)-4-{4-[4-(5-phenyl-tetrazol-1-ylmethyl)-phenoxy]-butyl}-piperazine]"
7,56.4,"COc1ccccc1N1CCN(CCCCOc2ccc(Cn3nnc(C)n3)cc2)CC1 [Example 17, 1-(2-methoxy-phenyl)-4-{4-[4-(5-methyl-tetrazol-2-ylmethyl)-phenoxy]-butyl}-piperazine]"
8,17.2,"Clc1ccccc1N1CCN(CCCCOc2ccc(Cn3cncn3)cc2)CC1 [Example 23, 1-(2-chloro-phenyl)-4-[4-(4-[1,2,4]triazol-1-ylmethyl-phenoxy)-butyl]-piperazine]"
9,45.2,"COc1ccccc1N1CCN(CCCCOc2cccc(Cn3ccnn3)c2)CC1 [Example 25, 1-(2-Methoxy-phenyl)-4-[4-(3-[1,2,3]triazol-1-ylmethyl-phenoxy)-butyl]-piperazine]"
10,47,"COc1ccccc1N1CCN(CCCCOc2cccc(Cn3nnc(C)n3)c2)CC1 [Example 26, 1-(2-Methoxy-phenyl)-4-{4-[3-(5-methyl-tetrazol-2-ylmethyl)-phenoxy]-butyl}-piperazine]"
11,40.9,"COc1ccccc1N1CCN(CCCCOc2cccc(Cn3nnnc3C)c2)CC1 [Example 27, 1-(2-methoxy-phenyl)-4-{4-[3-(5-methyl-tetrazol-1-ylmethyl)-phenoxy]-butyl}-piperazine]"

row,SMILES,inhibition at 0.01 µM [%]
1,"COc1ccccc1N1CCN(CCCCOc2ccc(Cn3cnc4ccccc43)cc2)CC1 [Example 9, 1-(4-{4-[4-(2-methoxy-phenyl)-piperazin-1-yl]-butoxy}-benzyl)-1H-benzoimidazole]",52.2
2,"COc1ccccc1N1CCN(CCCCOc2ccc(Cn3ncc4ccccc43)cc2)CC1 [Example 13, 1-(4-{4-[4-(2-Methoxy-phenyl)-piperazin-1-yl]-butoxy}-benzyl)-1H-indazole]",50.4
3,"COc1ccccc1N1CCN(CCCCOc2ccc(Cn3nnc4ccccc43)cc2)CC1 [Example 14, 1-(4-{4-[4-(2-Methoxy-phenyl)-piperazin-1-yl]-butoxy}-benzyl)-1H-benzotriazole]",51.1
4,"COc1ccccc1N1CCN(CCCCOc2ccc(CNc3nccs3)cc2)CC1 [Example 22, (4-{4-[4-(2-methoxy-phenyl)-piperazin-1-yl]-butoxy}-benzyl)-thiazol-2-yl-amine]",53.4
5,"COc1ccccc1N1CCN(CCCCOc2cccc(CN3CCOCC3)c2)CC1 [Example 29, 4-(3-{4-[4-(2-methoxy-phenyl)-piperazin-1-yl]-butoxy}-benzyl)-morpholine]",45.8
